pIC50: −log10 of the molar value. Several values for one entry are separate records, joined by “and”; a condition that tells them apart may be missing. Equal values may be shown once. Activity calls are given as the source filed them. The rule behind the calls is not given here.
Experiments:
U-937 [1] = experiment: Cytotoxicity against human U937 cells by trypan blue assay after 48 hrs; assay type: functional; details: U-937, 48 h
U-937 [2] = experiment: Growth inhibition of human U937 cells by [3H]thymidine incorporation assay; assay type: functional, cell-based
U-937 [3] = experiment: Induction of apoptosis in human U937 cells at 250 uM after 24 hrs; assay type: functional
U-937 [4] = experiment: Effect on DNA fragmentation in human U937 cells assessed as ladder-like pattern at 2 mM after 24 hrs; assay type: functional, cell-based
U-937 [5] = experiment: Induction of DNA fragmentation in human U937 cells at 2 mM after 24 hrs; assay type: functional, cell-based
U-937 [6] = experiment: Reversal of induction of apoptosis in human U937 cells at 250 uM in presence of 10 mM NAC added every 8 hrs for 24 hrs; assay type: functional, cell-based
U-937 [7] = experiment: Reversal of proapoptotic effect in human U937 cells assessed as inhibition of ladder-like pattern at 250 uM in presence of 10 mM NAC added every 8 hrs for 24 hrs; assay type: functional, cell-based

Row | Structure (SMILES) | CC50 (U-937 [1]) [mM] | pIC50 (U-937 [2]; Homo sapiens, U-937) | Activity (U-937 [3]) | Activity (U-937 [4]) | pIC50 (U-937 [2]; u-937) | Activity (U-937 [5]) | Activity (U-937 [6]) | Activity (U-937 [7])
1 | Cc1ccc2oc(=O)cc(C)c2c1 | > 2 | < 2.70 | 4.3% |  |  |  |  | 
2 | Cc1cc(=O)oc2cc(O)ccc12 [HYMECROMONE] | > 2 |  | 5.2% and 4.7% | Active | < 2.70 |  |  | 
3 | COc1ccc2c(C)cc(=O)oc2c1 [HYMECROMONE METHYL ETHER] | > 2 | < 2.70 | 4% |  |  |  |  | 
4 | O=c1ccc2ccccc2o1 [COUMARIN] | > 2 | < 2.70 | 2.6% |  |  |  |  | 
5 | Cc1ccc2c(C)cc(=O)oc2c1 | > 2 | < 2.70 | 5.3% |  |  |  |  | 
6 | O=c1ccc2cc(O)c(O)cc2o1 [ESCULETIN] | 0.194 | 4.50 | 54.3% |  |  | Active |  | 
7 | Cc1cc(=O)oc2c(O)c(O)ccc12 [4-METHYLDAPHNETIN] | 0.165 | 4.31 | 55% |  |  |  | Active | Active
8 | Cc1cc(=O)oc2c(C)cccc12 | > 2 | < 2.70 | 4.6% |  |  |  |  | 
9 | COc1cc2ccc(=O)oc2cc1O [SCOPOLETIN] | 0.6 | 3.82 | 6.3% | Active |  |  |  | 
10 | Cc1cc(=O)oc2ccc(O)cc12 | > 2 | 3.20 | 3% | Active |  |  |  | 
11 | O=c1oc2ccccc2cc1O [3-HYDROXYCOUMARIN] | > 2 | < 2.70 | 5.3% |  |  |  |  | 

Reference: ChEMBL document CHEMBL1141556, “Structural insights into hydroxycoumarin-induced apoptosis in U-937 cells” (Bioorg Med Chem, 2008)
